Data from patent publication US4147796A, “1-(3-Hydroxyalk-1-yl)-5-(carboxyalkyl)hydantoin derivatives” (Beecham Group Limited, priority 1976, dated 1979).

Legend:
[1] = test system: bronchoconstriction induced by an histamine aerosol; assay: Protection of conscious guinea pigs against bronchoconstriction induced by an histamine aerosol (Herxheimer test); type: in vivo, guinea pig; parameters: key to Aerosol route Activity (class symbol) / Oral route Activity (class symbol): A: active; settings: mean of several experiments; for minimal effective dose: Cavia porcellus, read-out: Oral route Activity: dose at which active; for minimal effective dose / Oral route Activity (class symbol): oral route
Procedure: 2. the compounds were also examined for their ability to protect conscious guinea pigs against bronchoconstriction induced by an histamine aerosol (Herxheimer test). In these experiments the compounds were administered by aerosol or by oral administration. The results are shown in Table B. The results are the mean of several experiments.

[2] = test system: 5-hydroxytryptamine-induced constriction; assay: Inhibition of 5-hydroxytryptamine induced bronchoconstriction in the anaesthetised, artificially respired guinea pig (Konzett-Rossler preparation); type: in vivo; settings: Cavia porcellus, iv, read-out: ID50 against 5-hydroxytryptamine-induced constriction
Procedure: (§1) 1. The compounds were examined for their ability to inhibit 5-hydroxytryptamine or histamine induced bronchoconstriction in the anaesthetised, artificially respired guinea pig (Konzett-Rossler preparation). The compounds were administered intravenously.

[3] = test system: indomethacin induced gastric damage; assay: Anti-ulcer activity: inhibition of indomethacin induced gastric damage in the rat; type: in vivo; settings: 100 mg/kg orally, 30 minutes prior to 15 mg/kg indomethacin s.c., groups of 7 rats, score scale 1-9
Procedure: Anti-ulcer activity was assessed by the inhibition of indomethacin induced gastric damage in the rat according to the method of Eleghe (1974) Israeli J. Med. Sci. 10. 1451. Rats were starved overnight given 15 mg/kg indomethacin subcutaneously and sacrificed 4 hours later. Stomachs were reflated with n.saline, cut along the greater curvature pinned out and scored for gastric damage by the following system:
Score 1-3--according to degree of erythema and slight haemorrhage.
Score 4-6--according to degree of mucosal erosion.
Score 7-9--according to depth of gastric damage.
Groups of 7 rats were used for each treatment and the test compound or vehicle were administered 30 minutes prior to giving the indomethacin. Dose of test compound was 100 mg/kg orally and control groups receiving vehicle only were set up simultaneously. Mean values for each treatment were obtained using the above scoring system and the Mann Witney test applied for significance of difference between the values obtained with the treatments.

[4] = test system: platelet aggregation induced by collagen in human platelet rich plasma; assay: Inhibition of collagen-induced platelet aggregation in vitro in human platelet rich plasma; type: cell-based; settings: for inhibition at 100 µM: collagen-induced
Text: The compounds were examined for their ability to inhibit platelet aggregation induced in vitro by collagen in human platelet rich plasma.

[5] = test system: heart fibrillation induced by chloroform; assay: Anti-arrythmic activity: prevention of heart fibrillation in mice exposed to chloroform; type: in vivo; settings: 100 mg/kg intraperitoneally, group of 3 mice
Text: The compounds were examined for anti-arrythmic activity by determining their ability to prevent heart fibrillation in mice exposed to chloroform.

[6] = test system: pentagastrin-stimulated gastric acid secretion; assay: Inhibition of pentagastrin-stimulated gastric acid secretion in the anaesthetised, perfused rat stomach preparation (Ghosh and Schild preparation); type: in vivo; settings: i.v.
Procedure: The compounds were examined for their ability to inhibit pentagastrin-stimulated gastric acid secretion in the anaesthetised, perfused rat stomach preparation (Ghosh and Schild preparation). The compounds were administered intra-venously.

[7] = in vivo; parameters: species or system mice; settings: mouse
Procedure: For example, Compound 17 was not toxic in mice at doses up to 300 mg/kg, orally, or at doses up to 100 mg/kg, intraperitoneally, whereas Compound 21 was not toxic at doses up to 900 mg/kg, orally, in mice.

[8] = test system: histamine-induced bronchoconstriction; assay: Inhibition of histamine induced bronchoconstriction in the anaesthetised, artificially respired guinea pig (Konzett-Rossler preparation); type: in vivo; settings: Cavia porcellus, iv, read-out: ID50 against histamine-induced constriction
Procedure: as §1

| Compound | Aerosol route Activity (class symbol) [1] | ED50 [2] [µg/kg] | further results |
| --- | --- | --- | --- |
| CCCCCCCC(C)(O)CCN1C(=O)N(C)C(=O)C1CCCCCCC(=O)OC (centres unmarked) [Compound 1, 1-(3'-hydroxy-3'-methyl-n-decyl)-3-methyl-5-(6"-methoxycarbonyl-n-hexyl)hydantoin] | A | 4.5 | – |
| CCCCCCC(C)(O)CCN1C(=O)N(CC)C(=O)C1CCCCCCC(=O)OCC (centres unmarked) [Compound 2, 1-(3'-hydroxy-3'-methyl-n-nonyl)-3-ethyl-5-(6"-ethoxycarbonyl-n-hexyl)hydantoin] | A | 6.8 | – |
| CCCCCCC(C)(O)CCN1C(=O)N(C)C(=O)C1CCCCCCC(=O)OCC (centres unmarked) [Compound 3] | A | 0.4 | minimal effective dose [1]: 250 µg/kg; Oral route Activity (class symbol) [1]: A |
| COC(=O)CCCCCCC1C(=O)N(C)C(=O)N1CCC1(O)CCCCC1 (centres unmarked) [Compound 4] | – | 220 | – |
| CCCCCCC(C)(O)CCN1C(=O)N(C)C(=O)C1CCCCCCC(=O)OC (centres unmarked) [Compound 6] | – | 1.5 | – |
| CCCCC(C)C(C)(O)CCN1C(=O)N(C)C(=O)C1CCCCCCC(=O)OC (centres unmarked) [Compound 7] | – | 3.3 | – |
| CCCCCCC(C)(O)CCN1C(=O)N(CC)C(=O)C1CCCCCCC(=O)O (centres unmarked) [Compound 16, 1-(3'-hydroxy-3'-methyl-n-nonyl)-3-ethyl-5-(6"-carboxy-n-hexyl)hydantoin] | A | 5.8 | – |
| CCCCCCCC(C)(O)CCN1C(=O)N(C)C(=O)C1CCCCCCC(=O)O (centres unmarked) [Compound 17] | A | 8.5 | Test Mean Score + S.E. of Mean (gastric damage score) [3]: 0.43 ± 0.30; inhibition at 100 µM [4]: 34%; prevention of fibrillation induced by chloroform [5]: prevented fibrillation; inhibited gastric acid secretion over the dose range [6]: 5000 to 10000 µg/kg; NOAEL ([7]; ip): ≥ 100000 µg/kg; NOAEL ([7]; po): ≥ 300000 µg/kg |
| CCC(C)(O)CCN1C(=O)N(C)C(=O)C1CCCCCCC(=O)O (centres unmarked) [Compound 18] | – | – | inhibition at 100 µM [4]: 100%; IC50 ([4]; in vitro, read-out: IC50 against collagen-induced aggregation): 7 µM |
| CN1C(=O)C(CCCCCCC(=O)O)N(CCC2(O)CCCCC2)C1=O (centres unmarked) [Compound 19] | – | > 220 | – |
| CCCCCCC(C)(O)CCN1C(=O)N(C)C(=O)C1CCCCCCC(=O)O (centres unmarked) [Compound 21, 1-(3'-hydroxy-3'-methyl-n-nonyl)-3-methyl-5-(6"-carboxy-n-hexyl)hydantoin] | A | 0.6 | ED50 [8]: 0.6 µg/kg; minimal effective dose [1]: 250 µg/kg; Oral route Activity (class symbol) [1]: A; NOAEL ([7]; po): ≥ 900000 µg/kg |
| CCCCC(C)C(C)(O)CCN1C(=O)N(C)C(=O)C1CCCCCCC(=O)O (centres unmarked) [Compound 22] | – | 3.2 | Test Mean Score + S.E. of Mean (gastric damage score) [3]: 0.00 ± 0.00 |
| CN1C(=O)C(CCCCCCC(=O)O)N(CCC(C)(O)c2ccccc2)C1=O (centres unmarked) [Compound 23] | – | 60 | – |
| CCCCCCC(O)CCN1C(=O)N(C)C(=O)C1CCCCCCC(=O)O (centres unmarked) [Compound 24] | – | 6 | – |
| CCCCCCC(C)(O)CCN1C(=O)N(C(C)(C)C)C(=O)C1CCCCCCC(=O)O (centres unmarked) [Compound 25] | – | – | Test Mean Score + S.E. of Mean (gastric damage score) [3]: 1.14 ± 0.74 |
| CCCCCCC(C)(O)CCN1C(=S)N(C)C(=O)C1CCCCCCC(=O)OC (centres unmarked) [Compound 30, 1-(3'-hydroxy-3'-methyl-n-nonyl)-3-methyl-5-(6"-methoxycarbonyl-n-hexyl)-2-thiohydantoin] | – | – | Test Mean Score + S.E. of Mean (gastric damage score) [3]: 0.14 ± 0.14 |
| CCCCCCC(C)(O)CCN1C(=S)N(C)C(=O)C1CCCCCCC(=O)OCC (centres unmarked) [Compound 31] | – | 4.2 | Test Mean Score + S.E. of Mean (gastric damage score) [3]: 0.00 ± 0.00 |
